PubChem BioAssay (NCI)
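Interpolation was linear, between the two tested concentrations surrounding the appropriate level; five concentrations were tested over 48 hours in 96-well plates. The concentration for 50% growth inhibition is given as GI50. TGI marks complete inhibition of growth.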

Key:
Test in all cases: NCI tumour cell line growth inhibition, 48 h
[1] = test system: CAKI-1 renal
[2] = test system: A549 NSCLC
[3] = test system: HOP-92 NSCLC
[4] = test system: NCI-H522 lung
[5] = test system: SF-539 CNS
[6] = test system: MCF7 breast
[7] = test system: SR leukemia
[8] = test system: K-562 leukemia
[9] = test system: TK-10 renal
[10] = test system: HOP-62 NSCLC
[11] = test system: MDA-MB-231 breast
[12] = test system: SK-MEL-28 melanoma
[13] = test system: UACC-62 melanoma
[14] = test system: HCT-116 colon
[15] = test system: SN12C renal
[16] = test system: MOLT-4 leukemia
[17] = test system: HL-60(TB) leukemia
[18] = test system: UACC-257 melanoma
[19] = test system: EKVX NSCLC
[20] = test system: NCI/ADR-RES ovarian
[21] = test system: OVCAR-3 ovarian
[22] = test system: NCI-H460 lung
[23] = test system: A498 renal
[24] = test system: ACHN renal
[25] = test system: DU-145 prostate
[26] = test system: SW-620 colon
[27] = test system: U251 CNS
[28] = test system: MALME-3M melanoma
[29] = test system: NCI-H23 lung
[30] = test system: SK-MEL-5 melanoma
[31] = test system: KM12 colon
[32] = test system: T-47D breast
[33] = test system: OVCAR-4 ovarian
[34] = test system: CCRF-CEM leukemia
[35] = test system: SF-295 CNS
[36] = test system: OVCAR-8 ovarian
[37] = test system: OVCAR-5 ovarian
[38] = test system: SF-268 CNS
[39] = test system: M14 melanoma
[40] = test system: HT29 colon
[41] = test system: SNB-19 CNS
[42] = test system: PC-3 prostate
[43] = test system: LOX IMVI melanoma
[44] = test system: HCT-15 colon
[45] = test system: RXF 393 renal
[46] = test system: MDA-MB-435
[47] = test system: UO-31 renal
[48] = test system: HCC-2998 colon
[49] = test system: IGROV1 ovarian
[50] = test system: NCI-H226 lung
[51] = test system: HS 578T breast
[52] = test system: SK-OV-3 ovarian
[53] = test system: 786-0 renal
[54] = test system: BT-549 breast
[55] = test system: COLO 205 colon
[56] = test system: RPMI-8226 leukemia
[57] = test system: SNB-75 CNS
[58] = test system: SK-MEL-2 melanoma

Structure (SMILES): Clc1ccc(Nc2ncnc3ccccc23)cc1
- GI50 [1]: 13.1 µM
- TGI [1]: 61.1 µM
- GI50 [2]: 47.6 µM
- TGI [2]: > 100 µM
- GI50 [3]: 13.8 µM
- TGI [3]: 73.2 µM
- GI50 [4]: 15.5 µM
- TGI [4]: 55.8 µM
- GI50 [5]: > 100 µM
- TGI [5]: > 100 µM
- GI50 [6]: 30.4 µM
- TGI [6]: > 100 µM
- GI50 [7]: 23 µM
- TGI [7]: 60.9 µM
- GI50 [8]: 28 µM
- TGI [8]: > 100 µM
- GI50 [9]: 2.79 µM
- TGI [9]: 31 µM
- GI50 [10]: > 100 µM
- TGI [10]: > 100 µM
- GI50 [11]: > 100 µM
- TGI [11]: > 100 µM
- GI50 [12]: > 100 µM
- TGI [12]: > 100 µM
- GI50 [13]: 78 µM
- TGI [13]: > 100 µM
- GI50 [14]: 81.5 µM
- TGI [14]: > 100 µM
- GI50 [15]: 23 µM
- TGI [15]: 73.1 µM
- GI50 [16]: 20.6 µM
- TGI [16]: 59.5 µM
- GI50 [17]: 36.7 µM
- TGI [17]: > 100 µM
- GI50 [18]: 49.9 µM
- TGI [18]: > 100 µM
- GI50 [19]: 10.1 µM
- TGI [19]: > 100 µM
- GI50 [20]: 53.7 µM
- TGI [20]: > 100 µM
- GI50 [21]: 34.9 µM
- TGI [21]: > 100 µM
- GI50 [22]: 43.7 µM
- TGI [22]: > 100 µM
- GI50 [23]: 17.6 µM
- TGI [23]: 85.8 µM
- GI50 [24]: 11.1 µM
- TGI [24]: 71.7 µM
- GI50 [25]: 26.4 µM
- TGI [25]: > 100 µM
- GI50 [26]: > 100 µM
- TGI [26]: > 100 µM
- GI50 [27]: 72.5 µM
- TGI [27]: > 100 µM
- GI50 [28]: 33.9 µM
- TGI [28]: > 100 µM
- GI50 [29]: 74.6 µM
- TGI [29]: > 100 µM
- GI50 [30]: 21.6 µM
- TGI [30]: 56.1 µM
- GI50 [31]: 47.7 µM
- TGI [31]: > 100 µM
- GI50 [32]: 80 µM
- TGI [32]: > 100 µM
- GI50 [33]: > 100 µM
- TGI [33]: > 100 µM
- GI50 [34]: 48.8 µM
- TGI [34]: > 100 µM
- GI50 [35]: 37.9 µM
- TGI [35]: > 100 µM
- GI50 [36]: 59.2 µM
- TGI [36]: > 100 µM
- GI50 [37]: > 100 µM
- TGI [37]: > 100 µM
- GI50 [38]: 38.7 µM
- TGI [38]: > 100 µM
- GI50 [39]: 54.9 µM
- TGI [39]: > 100 µM
- GI50 [40]: 55.3 µM
- TGI [40]: > 100 µM
- GI50 [41]: > 100 µM
- TGI [41]: > 100 µM
- GI50 [42]: 47 µM
- TGI [42]: > 100 µM
- GI50 [43]: 46.8 µM
- TGI [43]: > 100 µM
- GI50 [44]: 25.2 µM
- TGI [44]: > 100 µM
- GI50 [45]: 47.7 µM
- TGI [45]: > 100 µM
- GI50 [46]: 42.2 µM
- TGI [46]: > 100 µM
- GI50 [47]: 61 µM
- TGI [47]: > 100 µM
- GI50 [48]: > 100 µM
- TGI [48]: > 100 µM
- GI50 [49]: 12.9 µM
- TGI [49]: > 100 µM
- GI50 [50]: 57.2 µM
- TGI [50]: > 100 µM
- GI50 [51]: 37.9 µM
- TGI [51]: > 100 µM
- GI50 [52]: 91.1 µM
- TGI [52]: > 100 µM
- GI50 [53]: 64.7 µM
- TGI [53]: > 100 µM
- GI50 [54]: 72.8 µM
- TGI [54]: > 100 µM
- GI50 [55]: 68.9 µM
- TGI [55]: > 100 µM

Structure (SMILES): COc1ccc(-c2nc(Nc3ccc(F)cc3)nc(Nc3ccc4c(c3)nc(C)n4Cc3ccccc3)n2)cc1
- GI50 [2]: 3.59 µM
- TGI [2]: > 100 µM
- GI50 [3]: 2.59 µM
- TGI [3]: > 100 µM
- GI50 [4]: 5.92 µM
- TGI [4]: > 100 µM
- GI50 [5]: 4.99 µM
- TGI [5]: > 100 µM
- GI50 [6]: 3.14 µM
- TGI [6]: > 100 µM
- GI50 [7]: 3.49 µM
- TGI [7]: 47.8 µM
- GI50 [56]: 2.48 µM
- TGI [56]: 88.1 µM
- GI50 [8]: 3.44 µM
- TGI [8]: > 100 µM
- GI50 [10]: 8.47 µM
- TGI [10]: > 100 µM
- GI50 [11]: 3.64 µM
- TGI [11]: 18.9 µM
- GI50 [12]: 4.14 µM
- TGI [12]: > 100 µM
- GI50 [13]: 6.66 µM
- TGI [13]: > 100 µM
- GI50 [14]: 3 µM
- TGI [14]: > 100 µM
- GI50 [15]: 6.18 µM
- TGI [15]: > 100 µM
- GI50 [16]: 3.44 µM
- TGI [16]: > 100 µM
- GI50 [17]: 4.54 µM
- TGI [17]: > 100 µM
- GI50 [57]: 2.83 µM
- TGI [57]: > 100 µM
- GI50 [18]: 7.17 µM
- TGI [18]: > 100 µM
- GI50 [20]: 3.23 µM
- TGI [20]: 12.2 µM
- GI50 [21]: 6.54 µM
- TGI [21]: > 100 µM
- GI50 [22]: 3.35 µM
- TGI [22]: 20.9 µM
- GI50 [23]: 2.39 µM
- TGI [23]: 62.4 µM
- GI50 [24]: 3.13 µM
- TGI [24]: > 100 µM
- GI50 [25]: 7.59 µM
- TGI [25]: > 100 µM
- GI50 [26]: 5.25 µM
- TGI [26]: > 100 µM
- GI50 [27]: 4.19 µM
- TGI [27]: > 100 µM
- GI50 [28]: 4.32 µM
- TGI [28]: > 100 µM
- GI50 [29]: 6.54 µM
- TGI [29]: > 100 µM
- GI50 [30]: 3.2 µM
- TGI [30]: 24.2 µM
- GI50 [31]: 3.55 µM
- TGI [31]: 33.8 µM
- GI50 [32]: 2.42 µM
- TGI [32]: 44.2 µM
- GI50 [33]: 1.59 µM
- TGI [33]: > 100 µM
- GI50 [58]: 3.47 µM
- TGI [58]: 11.9 µM
- GI50 [34]: 2.88 µM
- TGI [34]: > 100 µM
- GI50 [35]: 3.73 µM
- TGI [35]: > 100 µM
- GI50 [36]: 3.45 µM
- TGI [36]: > 100 µM
- GI50 [37]: 3.26 µM
- TGI [37]: 68.9 µM
- GI50 [38]: 7.25 µM
- TGI [38]: > 100 µM
- GI50 [39]: 3.72 µM
- TGI [39]: > 100 µM
- GI50 [40]: 1.76 µM
- TGI [40]: 3.56 µM
- GI50 [41]: 6.9 µM
- TGI [41]: > 100 µM
- GI50 [42]: 3.11 µM
- TGI [42]: > 100 µM
- GI50 [43]: 3.98 µM
- TGI [43]: 57.6 µM
- GI50 [44]: 2.95 µM
- TGI [44]: > 100 µM
- GI50 [45]: 2.53 µM
- TGI [45]: 9.54 µM
- GI50 [46]: 3.27 µM
- TGI [46]: > 100 µM
- GI50 [47]: 3.53 µM
- TGI [47]: > 100 µM
- GI50 [48]: 5.85 µM
- TGI [48]: > 100 µM
- GI50 [49]: 5.41 µM
- TGI [49]: > 100 µM
- GI50 [50]: 5.34 µM
- TGI [50]: > 100 µM
- GI50 [51]: 6.63 µM
- TGI [51]: > 100 µM
- GI50 [52]: 10.1 µM
- TGI [52]: > 100 µM
- GI50 [53]: 2.68 µM
- TGI [53]: 11.2 µM
- GI50 [54]: 3.52 µM
- TGI [54]: > 100 µM
- GI50 [55]: 2.28 µM
- TGI [55]: 5.95 µM
